The test system of assay [1] is CCR10+ IPF Cell-Induced Fibrosis in NSG Mice. Nature of the assay: Humanized NSG mouse model of IPF: BIBF1120 from day 35 (Masson's trichrome, hydroxyproline, flow cytometry). The assay is classed as in vivo. Particulars: for modulation of fibrosis in humanized NSG model of IPF: therapeutic treatment from day 35. As to the method: IPF cells were injected intravenously into NSG mice and beginning at day 35 after injection mice were treated either with a solutol vehicle or 60 mg/kg BIBF-1120 solubilized in solutol for 5 days a week over 4 weeks. (A-C) Depicted are representative images of Masson's Trichrome staining of non-humanized (A) and humanized NSG mice that received solutol (B) or BIBF-1120 (C). (D) Depicted is the hydroxyproline in the lungs of non-humanized or humanized NSG mice that received solutol or BIBF-1120. Data are mean±s.e.m.; n=5-10/group. (E-F) Solutol- or BIBF1120-treated NSG humanized mouse lungs were analyzed by flow cytometry for human CD45, EpCAM and/or CCR10 expression. Depicted is the average number of CD45^+ CCR10^+ (E) and Lin^− CCR10^+ (F) cells in humanized NSG mice treated with solutol or BIBF1120. Data are mean±s.e.m.; n=5-10/group. p values indicated
Six to eight-week old, female, pathogen free NOD Cg-Prkdc^SCID IL2rg^Tm1wil Szi (NSG) or NOD.Cg-Prkdc^SCID IL2rg^tm1Wil Tg(CAG-EGFP) 10sb/SzJ (NSG-GFP) were purchased from Jackson Laboratories and housed in Cedars-Sinai Medical Center's high isolation animal rooms. NSG mice were allowed a minimum of one week to acclimate in the facility and then these mice either received nothing (i.e., non-humanized) 1×10^6 IPF cells by intravenous injection (i.e. humanized). In most in vivo experiments, the IPF cells used were removed from liquid N2 storage, rapidly thawed, and washed in serum-free medium prior to injection into NSG mice. Humanized NSG mice received KB004 (i.e., anti-EphA3 mAb supplied by Kalobios; 5 mg/kg) or KB243 (i.e., appropriate IgG control supplied by Kalobios; 5 mg/kg) either from days 0 to 35 or from days 35 to 63 by intraperitoneal injection twice weekly. […] Other groups of humanized NSG mice received either vehicle (i.e., solutol) or BIBF1120 (Cayman Chemicals) by oral gavage beginning at day 35 after IPF cell injection. Vehicle or drug was administered 5 days a week until day 63 after IPF cell injection. All NSG groups were monitored daily and mice were sacrificed if there is evidence for morbidity such as weight loss of more than 20%, loss of fur, paralysis and/or lack of responsiveness when handled.
Murine lung cellular suspensions were generated using a mouse lung dissociation kit, C-tubes, and a GentleMacs dissociator (Miltenyi Biotech). Spleens were dissociated using a sterile rubber tip of 1 ml syringe plunger and 100 μm 50 ml tube filters (BD bioscience) as follows: isolated spleens were placed in 1 ml of sterile complete medium until all the samples were collected. Sterile 50 ml conical tube filters were placed on top of sterile 50 ml conical tubes and were equilibrated by pipetting 1 ml of calcium and magnesium free DPBS (DBPS; Cellgro) through the filters. Spleens were transferred to a sterile 50 ml filter, cellular suspensions were generated using a sterile rubber tip of a syringe plunger, and splenic material was flushed with 5 ml of DPBS. Lung and splenic cell suspensions were centrifuged and resuspended in 1 ml of RBC lysis buffer (Biolegend), incubated at room temperature for 1-2 min and then equilibrated by adding 25 ml of DPBS to each tube. Cells were centrifuged and resuspended in flow cytometric wash/staining buffer (DPBS+2% FBS) in the presence of human and mouse Fc receptor blocking antibodies (Biolegend). Cells were then stained with anti-human-CD45, -EpCAM and -CCR10 antibodies for 20 min at 4° C. Unstained, isotype controls, fluorescent minus one controls and staining in non-humanized murine lung and spleen suspensions were utilized to gate out any non-specific antibody binding and background fluorescence. CCR10 antibodies were validated via the enrichment for CCR10 transcripts in magnetically sorted CCR10^+ cells versus non-sorted normal and IPF explant cells (FIG. 35). […]
For orientation: A flow cytometer gives signals particle by particle.

The conditions of assay [2]: FDA approved treatment of IPF patients; cited from earlier work.
The subject of assay [3] is normal and IPF lung fibroblasts. The experiment in a line: Soluble collagen 1 ELISA of lung fibroblast conditioned supernatants. The assay is classed as cell-based, human. The protocol: Lung fibroblasts (5000/well) were plated into a 96 well plate and incubated overnight. After incubation, cells were stimulated with 20 ng/ml of IL1β or vehicle in the presence or absence of 20 μg/ml of EphA3-Fc or IgG antibodies (supplied by Kalobios) for 24 and 72 h. After stimulation, conditioned supernatants were collected and the cells were washed and fixed with 4% paraformaldehyde solution in PBS for 10 min at room temperature.
Lung fibroblast conditioned supernatants were diluted 1:5 in DPBS. Purified Collagen 1 (STEMCELL Technologies Inc), diluted in 1:5 DBPS diluted complete medium, was utilized to generate an 8-point collagen 1 standard ranging from 200-0 ng/ml. Fifty microliters of the supernatants and standards were coated onto multisorb 96 well plates (Thermo Fisher Scientific) overnight at 4° C. After coating, the plates were washed and blocked with 200 μl of 3% BSA solution in DPBS (Lonza) for 1 h at room temperature on an orbital shaker. After blocking, plates were washed and 50 μl of 200 ng/ml biotin-conjugated anti collagen-1 antibody (Abcam Ab24821) was added to each well and the plates were incubated for 2 h at room temperature on an orbital shaker. […] Data were acquired by reading the absorbance at 405 nm using a Synergy H1 microplate reader (BioTek Instruments Inc.). […]

Assay [4] has the same test system. The experiment in a line: Flow cytometry for cell surface EphA3 expression on stimulated lung fibroblasts. It counts as cell-based, human. The conditions noted are these: 20 ng/ml; twenty-four hours after stimulation. The protocol: IPF surgical lung biopsy samples were obtained. IPF lung fibroblasts were generated by mechanically dissociating IPF lung biopsies or explants into sterile tissue culture plates. After mechanical dissociation, tissues were passed through a 25-ml pipette for 10 times, in DMEM (Lonza)+15% FBS (Cell Generation), 100 IU penicillin and 100 μg/ml streptomycin (Mediatech), 292 μg/ml L-Glutamine (Mediatech) and 100 μg/ml of Primocin (Invivogen) (complete medium). Cells were cultured at 37° C. and 10% CO2, medium was changed twice a week by careful removal of the liquid and retaining the minced tissues. This process was repeated for 1-2 weeks, until stromal colonies were apparent, after which fibroblast colonies were trypsinized and passaged. After 4-5 passages, fibroblast purity was confirmed using flow cytometry and/or qPCR analysis for CD45, EpCAM and CD31. Fibroblasts were then cultured in complete medium; fresh medium was added to the fibroblasts every 2-3 days and the cells were passaged when they were 70-90% confluent. […] After treatment, cells were then analyzed by flow cytometry for cell surface EphA3 expression.
Lung fibroblasts were plated and treated as described above. […] Flow cytometric data were acquired using a MACSQuant 10 (Miltenyi Biotech) flow cytometer and data were analyzed using Flowjo software V10.2 (freest& Inc.).

Assay [5] deals with lung fibroblast. The experiment in a line: Lung fibroblast invasiveness (not shown). The assay is classed as cell-based, human. Particulars: CCL28; data not shown.
The subject of assay [6] is normal and IPF lung fibroblasts. Nature of the assay: In cell αSMA ELISA in lung fibroblasts. It counts as cell-based, human. The conditions noted are these: CCL28; data not shown. The protocol: Lung fibroblasts (5000/well) were plated into a 96 well plate and incubated overnight. […] After stimulation, conditioned supernatants were collected and the cells were washed and fixed with 4% paraformaldehyde solution in PBS for 10 min at room temperature.
After fixation, cells were washed and permeabilized with 0.5% Triton X-100 in DPBS for 10 min, washed and endogenous peroxidase activity was blocked by adding a solution of 0.3% H2O2 in DPBS to the cells and incubating the cells with the solution for 20 min at room temperature. Cells were then washed and wells were blocked with a 1% BSA solution in DPBS for 30 min at room temperature. After blocking, cells were incubated with 500 ng/ml of anti-czSMA antibodies (Clone 1A4, Abcam) overnight at 4° C. on a rocker. […] The reaction was then stopped by adding 50 μl of 2N sulfuric acid and data were acquired by reading the absorbance at […] using a Synergy H1 microplate reader (BioTek Instruments Inc.). […] Data were acquired by reading the absorbance at 595 nm using a Synergy H1 microplate reader (BioTek Instruments Inc.). Ratios were generated from αSMA/β-tubulin absorbance data and the results were normalized to vehicle. The fold change after 24 and 72 h relative to vehicle was then determined and depicted in the figures.
(In general: ELISA stands for enzyme-linked immunosorbent assay.)

Where [7] appears, read: 60 mg/kg from day 35, day 63, flow cytometry.

Take `COC(=O)c1ccc2c(c1)NC(=O)/C2=C(\Nc1ccc(N(C)C(=O)CN2CCN(C)CC2)cc1)c1ccccc1` [BIBF1120, Nintedanib]: the “lung hydroxyproline compared with non-humanized NSG lungs” value in assay [1] (60 mg/kg from day 35, day 63) was “elevated”. Also, in assay [1] (setting [7]), the “CD45+ CCR10+ cells in NSG lungs compared with vehicle-treated group” value is “greater” and the “Lin- CCR10+ cells in NSG lungs compared with vehicle-treated group” value is listed as “greater”. Besides, the “lung fibrosis (Masson's trichrome staining)” value in assay [1] (60 mg/kg in solutol from day 35, lungs at day 63 after IPF cell injection) is listed as “showed lung fibrosis”. The “modulation of fibrosis in humanized NSG model of IPF” value in assay [1] is “ineffective at modulating fibrosis”. For the same molecule, the “modulation of fibrosis in humanized NSG model of IPF” value in assay [1] (listed as nintedanib) is listed as “did not therapeutically modulate fibrosis”. Also, in assay [2], the “disease progression in IPF patients” value is “effective at slowing down, but not halting, disease progression”.
On to `Cc1ccc(=O)n(-c2ccccc2)c1` [ESBRIET, Pirfenidone], for which the “disease progression in IPF patients” value in assay [2] is “effective at slowing down, but not halting, disease progression”.
In the case of “IL1β: cytokine Interleukin 1 beta used to stimulate lung fibroblasts (R&D systems) [reference compound]”, in assay [3] (IL1β 20 ng/ml, after 24 and, to a lesser extent, 72 h), the “collagen 1 in normal and IPF lung fibroblasts” value was “induced”. Also, the “surface EphA3 on normal and IPF lung fibroblasts” value in assay [4] is on record as “significantly unregulated”.

B1: CCL28: chemokine, CCR10 ligand (protein, UniProt Q9NRJ3 20-127, looked up)
C-C motif chemokine 28: SEAILPIASSCCTEVSHHISRRLLERVNMCRIQRADGDCDLAAVILHVKRRRICVSPHNHTVKQWMKVQAAKKNGKGNVCHRKKHHGKRNSNRAHQGKHETYGHKTPY
On to B1, for which, in assay [3] (CCL28, data not shown), the “collagen 1 secretion by lung fibroblasts” value is reported as “did not consistently modulate”. Moreover, the lung fibroblast invasiveness result in assay [5] is “did not consistently modulate”. Moreover, the “αSMA protein expression in lung fibroblasts” value in assay [6] is listed as “did not consistently modulate”.

Values taken from patent US11397178B2, “Method of predicting progression of idiopathic pulmonary fibrosis and monitoring of therapeutic efficacy” (Cedars-Sinai Medical Center, priority 2016, dated 2022).
